Source: ChEMBL document CHEMBL2016543, “New tacrine-4-oxo-4H-chromene hybrids as multifunctional agents for the treatment of Alzheimer's disease, with cholinergic, antioxidant, and β-amyloid-reducing properties” (J Med Chem, 2012)
Active and inactive are the calls of the source. No cut-off for these calls is given here. Starred links: 1 amine or outer side, 2 acyl side, 3 side chain; linkers in the order of their positions; H or OH if unused. Non-standard residues stand in square brackets, D forms with d. Residues, ends and D or L forms follow the SMILES beside them. LeuΨ(S-CHOHCH2)Ala = CC(C)C[C@H](N[*:1])[C@@H](O)C[C@@H](C)C(=O)[*:2]

Experiments:
Beta-secretase 1 [1] = target: T1, Beta-secretase 1 (Homo sapiens, UniProt P56817); experiment: Competitive inhibition of human recombinant […] using panvera peptide as substrate preincubated for 60 mins before substrate addition by FRET assay
T1 sequence (P56817 whole entry): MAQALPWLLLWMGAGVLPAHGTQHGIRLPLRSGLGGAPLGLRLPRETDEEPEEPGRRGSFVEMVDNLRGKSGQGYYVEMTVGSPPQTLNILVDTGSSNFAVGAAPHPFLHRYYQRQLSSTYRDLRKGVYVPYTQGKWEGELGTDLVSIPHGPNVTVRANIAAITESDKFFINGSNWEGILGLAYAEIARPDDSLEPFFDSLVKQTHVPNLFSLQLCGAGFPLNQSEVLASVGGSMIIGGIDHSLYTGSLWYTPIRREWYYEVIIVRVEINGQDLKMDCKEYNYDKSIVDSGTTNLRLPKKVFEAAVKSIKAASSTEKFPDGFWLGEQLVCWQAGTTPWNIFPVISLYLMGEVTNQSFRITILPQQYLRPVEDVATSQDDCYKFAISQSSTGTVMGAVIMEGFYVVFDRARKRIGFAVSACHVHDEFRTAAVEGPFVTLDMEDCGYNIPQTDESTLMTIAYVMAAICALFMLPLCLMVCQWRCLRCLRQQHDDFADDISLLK

Beta-secretase 1 [2] = target: T1, Beta-secretase 1
Description: Inhibition of human recombinant BChE using panvera peptide as substrate preincubated for 60 mins before substrate addition by FRET assay

Cholinesterase [3] = target: Cholinesterase (Equus caballus, UniProt P81908)
Chain of Cholinesterase (Equus caballus, UniProt P81908) (P81908 whole entry): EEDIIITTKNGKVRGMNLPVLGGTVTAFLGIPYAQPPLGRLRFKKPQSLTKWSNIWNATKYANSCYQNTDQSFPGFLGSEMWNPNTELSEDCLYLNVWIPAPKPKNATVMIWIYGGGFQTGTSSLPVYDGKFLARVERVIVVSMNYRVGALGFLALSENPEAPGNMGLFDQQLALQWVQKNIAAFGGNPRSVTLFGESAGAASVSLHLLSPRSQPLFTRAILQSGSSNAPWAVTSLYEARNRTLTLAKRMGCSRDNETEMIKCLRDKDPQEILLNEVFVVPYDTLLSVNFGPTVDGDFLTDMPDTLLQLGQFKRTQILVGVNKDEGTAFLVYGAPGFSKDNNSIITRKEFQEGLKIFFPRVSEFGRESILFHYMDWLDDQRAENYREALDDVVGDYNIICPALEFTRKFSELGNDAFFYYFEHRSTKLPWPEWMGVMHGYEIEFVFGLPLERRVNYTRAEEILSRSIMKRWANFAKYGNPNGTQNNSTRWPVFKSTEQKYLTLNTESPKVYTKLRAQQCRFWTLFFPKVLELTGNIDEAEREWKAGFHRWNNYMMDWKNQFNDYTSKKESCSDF
Description: (§1) Inhibition of horse serum BChE by Ellman's method

Acetylcholinesterase [4] = target: T2, Acetylcholinesterase (Bos taurus, UniProt P23795)
T2 sequence (P23795 whole entry): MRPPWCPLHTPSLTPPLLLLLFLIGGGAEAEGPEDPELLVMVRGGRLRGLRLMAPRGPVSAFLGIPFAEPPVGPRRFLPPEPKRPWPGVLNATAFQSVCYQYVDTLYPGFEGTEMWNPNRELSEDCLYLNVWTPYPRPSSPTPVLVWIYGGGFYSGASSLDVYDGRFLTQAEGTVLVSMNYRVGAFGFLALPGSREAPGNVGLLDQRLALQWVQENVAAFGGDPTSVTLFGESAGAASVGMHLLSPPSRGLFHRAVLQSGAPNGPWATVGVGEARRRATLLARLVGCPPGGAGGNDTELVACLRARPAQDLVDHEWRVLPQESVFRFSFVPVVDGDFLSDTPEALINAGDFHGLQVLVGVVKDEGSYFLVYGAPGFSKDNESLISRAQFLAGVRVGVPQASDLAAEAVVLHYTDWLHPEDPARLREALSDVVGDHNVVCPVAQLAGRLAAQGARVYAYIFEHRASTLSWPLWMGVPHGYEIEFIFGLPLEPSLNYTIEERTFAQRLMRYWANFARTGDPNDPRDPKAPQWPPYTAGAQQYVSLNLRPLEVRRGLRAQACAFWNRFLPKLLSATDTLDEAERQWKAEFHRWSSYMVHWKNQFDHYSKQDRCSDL
Description: (§2) Inhibition of bovine erythrocytes AChE by Ellman's method

Cholinesterase [5] = target: T3, Cholinesterase (Homo sapiens, UniProt P06276)
T3 sequence (P06276 whole entry): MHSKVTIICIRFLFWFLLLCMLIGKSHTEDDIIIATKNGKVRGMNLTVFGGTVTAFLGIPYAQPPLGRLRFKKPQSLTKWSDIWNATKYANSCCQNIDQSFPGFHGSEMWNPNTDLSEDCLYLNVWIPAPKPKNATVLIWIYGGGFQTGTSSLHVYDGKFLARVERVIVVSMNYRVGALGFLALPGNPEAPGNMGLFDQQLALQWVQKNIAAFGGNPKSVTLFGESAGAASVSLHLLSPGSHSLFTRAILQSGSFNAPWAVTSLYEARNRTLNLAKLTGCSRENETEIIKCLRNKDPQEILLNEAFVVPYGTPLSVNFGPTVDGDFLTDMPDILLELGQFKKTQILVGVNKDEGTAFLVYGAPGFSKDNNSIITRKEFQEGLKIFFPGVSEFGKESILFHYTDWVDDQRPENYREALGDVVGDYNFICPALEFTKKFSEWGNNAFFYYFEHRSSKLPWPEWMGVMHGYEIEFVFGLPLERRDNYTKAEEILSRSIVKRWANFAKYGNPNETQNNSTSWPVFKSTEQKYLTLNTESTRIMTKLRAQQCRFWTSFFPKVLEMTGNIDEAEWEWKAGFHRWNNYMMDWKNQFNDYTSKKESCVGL
Description: Inhibition of human serum BChE by Ellman's method

Acetylcholinesterase [6] = target: Acetylcholinesterase (Homo sapiens, UniProt P22303)
Chain of Acetylcholinesterase (Homo sapiens, UniProt P22303) (P22303 whole entry): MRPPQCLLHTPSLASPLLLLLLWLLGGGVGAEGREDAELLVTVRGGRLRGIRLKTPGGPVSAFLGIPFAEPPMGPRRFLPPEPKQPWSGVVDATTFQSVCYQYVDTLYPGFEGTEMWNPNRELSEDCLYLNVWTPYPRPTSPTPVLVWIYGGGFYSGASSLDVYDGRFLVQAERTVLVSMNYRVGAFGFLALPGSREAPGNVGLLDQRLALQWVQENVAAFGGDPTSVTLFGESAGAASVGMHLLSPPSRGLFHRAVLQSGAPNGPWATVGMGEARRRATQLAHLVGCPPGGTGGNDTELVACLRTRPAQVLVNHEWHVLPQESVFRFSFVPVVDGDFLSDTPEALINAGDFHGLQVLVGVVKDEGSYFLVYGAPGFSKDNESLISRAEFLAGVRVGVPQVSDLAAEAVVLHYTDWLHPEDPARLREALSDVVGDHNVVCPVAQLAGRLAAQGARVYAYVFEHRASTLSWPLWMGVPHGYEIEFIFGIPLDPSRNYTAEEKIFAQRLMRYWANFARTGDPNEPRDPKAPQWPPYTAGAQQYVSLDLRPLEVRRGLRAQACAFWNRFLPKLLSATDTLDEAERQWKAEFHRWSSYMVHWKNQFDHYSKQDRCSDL
Description: Inhibition of human erythrocytes AChE by Ellman's method

in vitro = conditions: PAMPA, pH 7.4
Description: Permeability of the compound in phosphate buffer at pH 7.4 by PAMPA

[7] = target: T4, Acetylcholinesterase (Bos taurus) (UniProt P23795)
T4 sequence (whole entry): T2 sequence (P23795 whole entry)
Description: as §2

[8] = target: Cholinesterase (Equus caballus) (UniProt P81908)
Chain of Cholinesterase (Equus caballus) (P81908 whole entry): as the sequence (P81908 whole entry) above
Description: as §1

Cholinesterase [9] = target: T3, Cholinesterase; experiment: Ratio of tacrine IC50 to compound IC50 for human serum BChE

Row | Structure (SMILES) | Kic (Beta-secretase 1 [1]) | IC50 (Beta-secretase 1 [2]) | IC50 (Cholinesterase [3]) | IC50 (Acetylcholinesterase [4]) | IC50 (Cholinesterase [5]) | IC50 (Acetylcholinesterase [6]) | Papp (in vitro) | inhibition [7] | inhibition [8] | Ratio IC50 (Cholinesterase [9])
1 | O=c1cc(-c2ccc(O)cc2)oc2cc(O)cc(O)c12 [APIGENIN] | 11.3 µM | 38500 nM | – | – | – | – | – | – | – | –
2 | O=C(NCCCCCCCNc1c2c(nc3ccccc13)CCCC2)c1cc(=O)c2ccccc2o1 | – | – | 1.75 nM | 100 nM | – | – | – | – | – | –
3 | O=C(NCCCCCCCCCCCCNc1c2c(nc3ccccc13)CCCC2)c1cc(=O)c2ccccc2o1 | – | – | 0.25 nM | 150 nM | – | – | – | – | – | –
4 | Cl.O=C(NCCCCCCCCCCNc1c2c(nc3ccccc13)CCCC2)c1cc(=O)c2cc(O)ccc2o1 | 0.82 µM | 2800 nM | 1 nM | 75 nM | 1.5 nM | 8 nM | 23.1 ×10⁻⁶ cm/s | – | – | –
5 | COc1ccc2oc(C(=O)NCCCCCCCCCCNc3c4c(nc5cc(Cl)ccc35)CCCC4)cc(=O)c2c1.Cl | 4.23 µM | 14400 nM | 0.425 nM | 5 nM | 0.1 nM | 0.1 nM | 7.5 ×10⁻⁶ cm/s | – | – | –
6 | Cl.O=C(NCCCCCCCCCCNc1c2c(nc3cc(Cl)ccc13)CCCC2)c1cc(=O)c2ccccc2o1 | 6.58 µM | 22400 nM | 0.18 nM | 5 nM | 0.08 nM | 0.3 nM | 7.1 ×10⁻⁶ cm/s | – | – | –
7 | Cl.O=C(NCCCCCCCCCCNc1c2c(nc3ccccc13)CCCC2)c1cc(=O)c2c(O)cc(O)cc2o1 | 1.06 µM | 3600 nM | 0.35 nM | 500 nM | 0.8 nM | 2.3 nM | 13.1 ×10⁻⁶ cm/s | – | – | –
8 | COc1ccc2oc(C(=O)NCCCCCCCCCCNc3c4c(nc5cc(Cl)cc(Cl)c35)CCCC4)cc(=O)c2c1 | – | – | 7.5 nM | 550 nM | – | – | – | – | – | –
9 | COc1cc(O)c2c(=O)cc(C(=O)NCCCCCCCCCCNc3c4c(nc5cc(Cl)ccc35)CCCC4)oc2c1.Cl | – | – | 0.175 nM | 38 nM | 5 nM | 0.035 nM | 8.7 ×10⁻⁶ cm/s | – | – | –
10 | Cl.O=C(NCCCCCCCCCCNc1c2c(nc3cc(Cl)ccc13)CCCC2)c1cc(=O)c2c(O)cc(O)cc2o1 | – | – | 3 nM | 10 nM | 2.5 nM | 0.065 nM | 7.8 ×10⁻⁶ cm/s | – | – | –
11 | O=C(NCCCCCCCCCCNc1c2c(nc3cc(Cl)cc(Cl)c13)CCCC2)c1cc(=O)c2cc(O)c(O)cc2o1 | – | – | 88 nM | 90 nM | – | – | – | – | – | –
12 | COc1cc(O)c2c(=O)cc(C(=O)NCCCCCCCCCCNc3c4c(nc5ccccc35)CCCC4)oc2c1.Cl | 0.85 µM | 2900 nM | 2 nM | 250 nM | 1 nM | 1 nM | 10.6 ×10⁻⁶ cm/s | – | – | –
13 | COc1cc2oc(C(=O)NCCCCCCCCCCNc3c4c(nc5cc(Cl)ccc35)CCCC4)cc(=O)c2cc1OC.Cl | – | – | 0.85 nM | 6.5 nM | 50 nM | 0.2 nM | 7.4 ×10⁻⁶ cm/s | – | – | –
14 | O=C(NCCCCCCCCCCNc1c2c(nc3cc(Cl)cc(Cl)c13)CCCC2)c1cc(=O)c2cc(O)ccc2o1 | – | – | 17.5 nM | 350 nM | – | – | – | – | – | –
15 | CC(C)C[C@H](NC(=O)[C@H](CC(N)=O)NC(=O)[C@@H](NC(=O)[C@@H](N)CC(=O)O)C(C)C)[C@@H](O)C[C@@H](C)C(=O)N[C@@H](C)C(=O)N[C@@H](CC(=O)O)C(=O)N[C@@H](Cc1ccccc1)C(=O)O (H-DVN[LeuΨ(S-CHOHCH2)Ala]ADF-OH) | 0.0097 µM | 33 nM | – | – | – | – | – | – | – | –
16 | O=C(NCCCCCCCCCNc1c2c(nc3ccccc13)CCCC2)c1cc(=O)c2ccccc2o1 | – | – | 0.58 nM | 125 nM | – | – | – | – | – | –

Row | Structure (SMILES) | Kic (Beta-secretase 1 [1]) | IC50 (Beta-secretase 1 [2]) | IC50 (Cholinesterase [3]) | IC50 (Acetylcholinesterase [4]) | IC50 (Cholinesterase [5]) | IC50 (Acetylcholinesterase [6]) | Papp (in vitro) | inhibition [7] | inhibition [8] | Ratio IC50 (Cholinesterase [9])
17 | Cl.O=C(NCCCCCCCCCCNc1c2c(nc3ccccc13)CCCC2)c1cc(=O)c2cc(O)c(O)cc2o1 | – | – | 8 nM | 300 nM | 30 nM | 6.5 nM | 6.3 ×10⁻⁶ cm/s | – | – | –
18 | O=C(NCCCCCCCCNc1c2c(nc3ccccc13)CCCC2)c1cc(=O)c2ccccc2o1 | – | – | 0.5 nM | 150 nM | – | – | – | – | – | –
19 | Cl.O=C(NCCCCCCCCCCNc1c2c(nc3cc(Cl)ccc13)CCCC2)c1cc(=O)c2cc(O)ccc2o1 | – | – | 3.5 nM | 80 nM | 1.5 nM | 1 nM | 11.5 ×10⁻⁶ cm/s | – | – | –
20 | O=C(NCCCCCCCCCCNc1c2c(nc3cc(Cl)cc(Cl)c13)CCCC2)c1cc(=O)c2c(O)cc(O)cc2o1 | – | – | 35 nM | 75 nM | – | – | – | – | – | –
21 | Cl.O=C(NCCCCCCCCCCNc1c2c(nc3ccccc13)CCCC2)c1cc(=O)c2ccccc2o1 | – | – | 0.18 nM | 75 nM | 0.15 nM | 17.5 nM | 9.1 ×10⁻⁶ cm/s | – | – | –
22 | COc1cc2oc(C(=O)NCCCCCCCCCCNc3c4c(nc5ccccc35)CCCC4)cc(=O)c2cc1OC.Cl | 0.88 µM | 3000 nM | 0.55 nM | 85 nM | 15 nM | 1.8 nM | 15 ×10⁻⁶ cm/s | – | – | –
23 | O=C(O)c1cc(=O)c2ccccc2o1 | – | – | – | – | – | – | – | inactive | inactive | –
24 | COc1ccc2oc(C(=O)NCCCCCCCCCCNc3c4c(nc5ccccc35)CCCC4)cc(=O)c2c1.Cl | – | – | 0.324 nM | 35 nM | 0.038 nM | 0.775 nM | 14.9 ×10⁻⁶ cm/s | – | – | 1050
25 | COc1cc(OC)c2c(=O)cc(C(=O)NCCCCCCCCCCNc3c4c(nc5cc(Cl)cc(Cl)c35)CCCC4)oc2c1 | – | – | 0.75 nM | 150 nM | – | – | – | – | – | –
26 | COc1cc(O)c2c(=O)cc(C(=O)NCCCCCCCCCCNc3c4c(nc5cc(Cl)cc(Cl)c35)CCCC4)oc2c1 | – | – | 35 nM | 80 nM | – | – | – | – | – | –
27 | O=C(NCCCCCCCCCCNc1c2c(nc3cc(Cl)cc(Cl)c13)CCCC2)c1cc(=O)c2ccccc2o1 | – | – | 100 nM | 1000 nM | – | – | – | – | – | –
28 | COc1cc2oc(C(=O)NCCCCCCCCCCNc3c4c(nc5cc(Cl)cc(Cl)c35)CCCC4)cc(=O)c2cc1OC | – | – | 100 nM | 175 nM | – | – | – | – | – | –
29 | COc1cc(OC)c2c(=O)cc(C(=O)NCCCCCCCCCCNc3c4c(nc5cc(Cl)ccc35)CCCC4)oc2c1.Cl | – | – | 1 nM | 50 nM | 0.1 nM | 0.35 nM | 10.7 ×10⁻⁶ cm/s | – | – | –
30 | COc1cc(OC)c2c(=O)cc(C(=O)NCCCCCCCCCCNc3c4c(nc5ccccc35)CCCC4)oc2c1.Cl | 0.62 µM | 2100 nM | 0.325 nM | 100 nM | 0.1 nM | 2.3 nM | 14.7 ×10⁻⁶ cm/s | – | – | –
31 | Cl.O=C(NCCCCCCCCCCNc1c2c(nc3cc(Cl)ccc13)CCCC2)c1cc(=O)c2cc(O)c(O)cc2o1 | 3.99 µM | 13600 nM | 28 nM | 17.5 nM | 95 nM | 0.09 nM | 5.3 ×10⁻⁶ cm/s | – | – | –
